Reference: PubChem BioAssay AID1963846 (Molecular Pharmacology Branch, DTP, NCI, 2024)
pIC50: −log10 of the molar value.

Tested on: 454973-116-R2-J3-PDC complex spheroid viability
Experiment: Anticancer human tumor 454973-116-R2-J3-PDC patient-derived pancreatic carcinoma cell line growth inhibition [POLQ]
Settings: for pIC50: curve of first compound; for viability, T/C: stronger effect = lower value
How it was run: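 Growth inhibition in 3D: complex spheroids (tumor PDC, HUVEC, MSC) treated with POLQ inhibitor combinations; where Cmax unknown, highest tested concentration 10 microM, except SN-38 at 1 microM.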

[1] = second compound 0.0316 µM, first compound 0.0316 µM
[2] = second compound 0.0316 µM, first compound 0.1 µM
[3] = second compound 0.1 µM, first compound 0.0316 µM
[4] = second compound 0.1 µM, first compound 0.1 µM
[5] = second compound 0.316 µM, first compound 0.0316 µM
[6] = second compound 0.316 µM, first compound 0.1 µM
[7] = second compound 1 µM, first compound 0.0316 µM
[8] = second compound 1 µM, first compound 0.1 µM
[9] = second compound 3.16 µM, first compound 0.0316 µM
[10] = second compound 3.16 µM, first compound 0.1 µM
[11] = second compound 10 µM, first compound 0.0316 µM
[12] = second compound 10 µM, first compound 0.1 µM
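Further: spheroids exposed to drugs for seven days before measurement.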
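Wherever viability, T/C is given: percent viability relative to DMSO vehicle control wells taken as 100%.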

`COc1ccc([C@@H](O)c2cc(-c3ncnc4cc(N5CCOCC5)ccc34)c(F)cc2Cl)nn1` + Nc1ccc(C#CCN(C(=O)Cc2ncc(C(F)(F)F)cc2C(F)(F)F)c2ccc(F)cc2)nn1 was tested. Which pIC50 (second compound 0.0316 µM) did it give?
Its pIC50 is less than 5.00.

What about the pIC50 (second compound 0.1 µM) of the same molecule?
Its pIC50 is less than 5.00.

What about the pIC50 (second compound 0.316 µM) of the same molecule?
The pIC50 was less than 5.00.

What about the pIC50 (second compound 1 µM) of the same molecule?
Its pIC50 is less than 5.00.

And the pIC50 (second compound 3.16 µM)?
Its pIC50 is less than 5.00.

And the pIC50 (second compound 10 µM)?
The pIC50 was less than 5.00.

And the viability, T/C [1]?
Its viability, T/C is 107%.

What about the viability, T/C [2] of the same molecule?
Its viability, T/C is 107%.

And the viability, T/C (second compound 0.0316 µM, first compound 0.316 µM)?
The viability, T/C was 96.9%.

And the viability, T/C (second compound 0.0316 µM, first compound 1 µM)?
The viability, T/C was 86.9%.

What about the viability, T/C (second compound 0.0316 µM, first compound 3.16 µM) of the same molecule?
Its viability, T/C is 66.3%.

And the viability, T/C (second compound 0.0316 µM, first compound 10 µM)?
The viability, T/C was 53.5%.

And the viability, T/C [3]?
Its viability, T/C is 106%.

And the viability, T/C [4]?
Its viability, T/C is 96.1%.

And the viability, T/C (second compound 0.1 µM, first compound 0.316 µM)?
The viability, T/C was 108%.

What about the viability, T/C (second compound 0.1 µM, first compound 1 µM) of the same molecule?
The viability, T/C was 90.3%.

And the viability, T/C (second compound 0.1 µM, first compound 3.16 µM)?
The viability, T/C was 69.2%.

What about the viability, T/C (second compound 0.1 µM, first compound 10 µM) of the same molecule?
The viability, T/C was 49.8%.

What about the viability, T/C [5] of the same molecule?
The viability, T/C was 107%.

What about the viability, T/C [6] of the same molecule?
The viability, T/C was 107%.

And the viability, T/C (second compound 0.316 µM, first compound 0.316 µM)?
Its viability, T/C is 102%.

What about the viability, T/C (second compound 0.316 µM, first compound 1 µM) of the same molecule?
The viability, T/C was 85.8%.

And the viability, T/C (second compound 0.316 µM, first compound 3.16 µM)?
The viability, T/C was 73.9%.

And the viability, T/C (second compound 0.316 µM, first compound 10 µM)?
Its viability, T/C is 52.4%.

And the viability, T/C [7]?
The viability, T/C was 107%.

What about the viability, T/C [8] of the same molecule?
Its viability, T/C is 106%.

And the viability, T/C (second compound 1 µM, first compound 0.316 µM)?
The viability, T/C was 104%.

What about the viability, T/C (second compound 1 µM, first compound 1 µM) of the same molecule?
The viability, T/C was 92.3%.

What about the viability, T/C (second compound 1 µM, first compound 3.16 µM) of the same molecule?
The viability, T/C was 79.4%.

What about the viability, T/C (second compound 1 µM, first compound 10 µM) of the same molecule?
Its viability, T/C is 59.9%.

And the viability, T/C [9]?
Its viability, T/C is 102%.

And the viability, T/C [10]?
Its viability, T/C is 107%.

And the viability, T/C (second compound 3.16 µM, first compound 0.316 µM)?
The viability, T/C was 116%.

What about the viability, T/C (second compound 3.16 µM, first compound 1 µM) of the same molecule?
Its viability, T/C is 93.9%.

What about the viability, T/C (second compound 3.16 µM, first compound 3.16 µM) of the same molecule?
Its viability, T/C is 68.5%.

What about the viability, T/C (second compound 3.16 µM, first compound 10 µM) of the same molecule?
Its viability, T/C is 56.5%.

What about the viability, T/C [11] of the same molecule?
The viability, T/C was 120%.

And the viability, T/C [12]?
Its viability, T/C is 119%.

What about the viability, T/C (second compound 10 µM, first compound 0.316 µM) of the same molecule?
Its viability, T/C is 118%.

And the viability, T/C (second compound 10 µM, first compound 1 µM)?
The viability, T/C was 93.7%.

And the viability, T/C (second compound 10 µM, first compound 3.16 µM)?
The viability, T/C was 80.3%.

And the viability, T/C (second compound 10 µM, first compound 10 µM)?
Its viability, T/C is 64.4%.

With `Cn1ncnc1[C@H]1c2n[nH]c(=O)c3cc(F)cc(c23)N[C@@H]1c1ccc(F)cc1` + Nc1ccc(C#CCN(C(=O)Cc2ncc(C(F)(F)F)cc2C(F)(F)F)c2ccc(F)cc2)nn1 as the molecule, how does the pIC50 (second compound 0.0316 µM) read?
The pIC50 was less than 7.00.

What about the pIC50 (second compound 0.1 µM) of the same molecule?
The pIC50 was less than 7.00.

And the pIC50 (second compound 0.316 µM)?
Its pIC50 is less than 7.00.

And the pIC50 (second compound 1 µM)?
The pIC50 was less than 7.00.

What about the pIC50 (second compound 3.16 µM) of the same molecule?
Its pIC50 is less than 7.00.

What about the pIC50 (second compound 10 µM) of the same molecule?
Its pIC50 is less than 7.00.

What about the viability, T/C (second compound 0.0316 µM, first compound 0.000316 µM) of the same molecule?
Its viability, T/C is 107%.

And the viability, T/C (second compound 0.0316 µM, first compound 0.001 µM)?
The viability, T/C was 93.9%.

And the viability, T/C (second compound 0.0316 µM, first compound 0.00316 µM)?
The viability, T/C was 98%.

And the viability, T/C (second compound 0.0316 µM, first compound 0.01 µM)?
The viability, T/C was 90.9%.

What about the viability, T/C [1] of the same molecule?
The viability, T/C was 93.6%.

And the viability, T/C [2]?
The viability, T/C was 82.3%.

And the viability, T/C (second compound 0.1 µM, first compound 0.000316 µM)?
Its viability, T/C is 108%.

What about the viability, T/C (second compound 0.1 µM, first compound 0.001 µM) of the same molecule?
Its viability, T/C is 104%.

What about the viability, T/C (second compound 0.1 µM, first compound 0.00316 µM) of the same molecule?
The viability, T/C was 96.7%.

What about the viability, T/C (second compound 0.1 µM, first compound 0.01 µM) of the same molecule?
The viability, T/C was 98.9%.

What about the viability, T/C [3] of the same molecule?
Its viability, T/C is 97.2%.

What about the viability, T/C [4] of the same molecule?
The viability, T/C was 79.9%.

And the viability, T/C (second compound 0.316 µM, first compound 0.000316 µM)?
Its viability, T/C is 105%.

And the viability, T/C (second compound 0.316 µM, first compound 0.001 µM)?
Its viability, T/C is 102%.

And the viability, T/C (second compound 0.316 µM, first compound 0.00316 µM)?
The viability, T/C was 102%.

And the viability, T/C (second compound 0.316 µM, first compound 0.01 µM)?
The viability, T/C was 92.3%.

What about the viability, T/C [5] of the same molecule?
The viability, T/C was 101%.

What about the viability, T/C [6] of the same molecule?
Its viability, T/C is 89.2%.

And the viability, T/C (second compound 1 µM, first compound 0.000316 µM)?
The viability, T/C was 109%.

What about the viability, T/C (second compound 1 µM, first compound 0.001 µM) of the same molecule?
Its viability, T/C is 105%.

What about the viability, T/C (second compound 1 µM, first compound 0.00316 µM) of the same molecule?
Its viability, T/C is 108%.

What about the viability, T/C (second compound 1 µM, first compound 0.01 µM) of the same molecule?
The viability, T/C was 105%.

What about the viability, T/C [7] of the same molecule?
Its viability, T/C is 91.6%.

And the viability, T/C [8]?
The viability, T/C was 82.9%.

And the viability, T/C (second compound 3.16 µM, first compound 0.000316 µM)?
Its viability, T/C is 111%.

And the viability, T/C (second compound 3.16 µM, first compound 0.001 µM)?
Its viability, T/C is 116%.

And the viability, T/C (second compound 3.16 µM, first compound 0.00316 µM)?
Its viability, T/C is 102%.

What about the viability, T/C (second compound 3.16 µM, first compound 0.01 µM) of the same molecule?
Its viability, T/C is 100%.

And the viability, T/C [9]?
The viability, T/C was 96.3%.

And the viability, T/C [10]?
Its viability, T/C is 84.7%.

What about the viability, T/C (second compound 10 µM, first compound 0.000316 µM) of the same molecule?
The viability, T/C was 112%.

And the viability, T/C (second compound 10 µM, first compound 0.001 µM)?
Its viability, T/C is 109%.

And the viability, T/C (second compound 10 µM, first compound 0.00316 µM)?
Its viability, T/C is 117%.

What about the viability, T/C (second compound 10 µM, first compound 0.01 µM) of the same molecule?
Its viability, T/C is 107%.

And the viability, T/C [11]?
Its viability, T/C is 113%.

What about the viability, T/C [12] of the same molecule?
Its viability, T/C is 95.8%.
